The results in this text go back to patent US20040176368A1, “Pesticidal composition” (Sumitomo Chemical Company, Limited, priority 2003, published 2004).

In this test the test system is German cockroaches (Blattlla germanica). Description: Spray test on German cockroaches in glass box (Test example 1). The test is classed as in vivo. Particulars: 4.2 ml sprayed, 10 min exposure, observed 4 days thereafter. As to the method:
Two grams (2 g) of each of Indoxacarb MP and Imiprothrin are mixed with 98 g of a mixture of xylene/Sorpol SM200X (surfactant produced by Toho Chemical)=85/15 to give each formulation of Indoxacarb MP and Imiprothrin. The formulations for the following tests are produced by mixing the Indoxacarb MP formulation with the Imiprothrin formulation at the designated ratio. The formulations for the tests are diluted with water to the designated concentration to give the preparations for the test.
Into the glass box, 4.2 ml of the preparation obtained above were sprayed with a spray gun. Ten minutes after spraying, the cockroaches were transferred to a plastic container and were provided with food and water. The mortality of the cockroaches was observed 4 days thereafter.

On to `C#CCN1CC(=O)N(COC(=O)C2C(C=C(C)C)C2(C)C)C1=O` (mixture of isomers) [Imiprothrin, 2,5-dioxo-3-prop-2-ynylimidazolidin-1-ylmethyl (1R)-trans,cis-2,2-dimethyl-3-(2-methylprop-1-enyl)cyclopropanecarboxylate], for which the “Mortality (%)” value (concentration of the preparation 0.4 % by weight) turned out to be 0%.

On to `COC(=O)N(C(=O)N1COC2(C(=O)OC)Cc3cc(Cl)ccc3C2=N1)c1ccc(OC(F)(F)F)cc1` (racemic) [Indoxacarb MP, methyl (RS)-7-chloro-2,5-dihydro-2-[[(methoxycarbonyl)[4-(trifluoromethoxy)phenyl]amino]carbornyl]indeno[1,2-e][1,3,4]oxadiazine-4a(3H)-carboxylate], for which the “Mortality (%)” value (concentration of the preparation 0.5 % by weight) is recorded as 25%.
